Reference: the CheMixHub viscosity set

Assay: xn = mol fraction of the nth substance listed

CCNCCO + O
viscosity [mPa·s]
Settings	293.15 K	298.15 K	303.15 K	308.15 K	313.15 K	318.15 K	323.15 K
100 kPa, x2 = 0.55	32.2	–	18.1	–	10.9	–	6.98
101 kPa, x1 = 0.0499	–	–	1.968	–	–	–	–
101 kPa, x1 = 0.0998	–	–	3.824	–	–	–	–
101 kPa, x1 = 0.1506	–	–	6.179	–	–	–	–
101 kPa, x1 = 0.2011	–	–	8.652	–	–	–	–
101 kPa, x1 = 0.2982	–	–	13.25	–	–	–	–
101 kPa, x1 = 0.4029	–	–	17.07	–	–	–	–
101 kPa, x1 = 0.4458	–	–	17.98	–	–	–	–
101 kPa, x1 = 0.5051	–	–	18.79	–	–	–	–
101.3 kPa, x1 = 0.0481	2.723	–	1.934	–	1.422	–	1.093
101.3 kPa, x1 = 0.0797	4.52	3.7	3.05	2.56	2.18	1.86	1.62
101.3 kPa, x1 = 0.1001	7.45	–	4.82	–	2.74	–	2
101.3 kPa, x1 = 0.119	7.315	–	4.617	–	3.122	–	2.225
101.3 kPa, x1 = 0.168	11.94	9.26	7.3	5.85	4.78	3.96	3.34
101.3 kPa, x1 = 0.2	–	–	9.31	–	5.5	–	3.68
101.3 kPa, x1 = 0.233	17.55	–	10.33	–	6.544	–	4.39
101.3 kPa, x1 = 0.3001	23.16	–	13.36	–	8.19	–	5.2
101.3 kPa, x1 = 0.4002	28.88	–	16.31	–	10.32	–	6.29
101.3 kPa, x1 = 0.447	31.75	–	17.94	–	10.85	–	6.977
101.3 kPa, x1 = 0.5	–	–	17.86	–	11.49	–	6.88
101.3 kPa, x1 = 0.6001	31.42	–	17.96	–	11.66	–	7.05
101.3 kPa, x1 = 0.7	28.21	–	16.61	–	10.91	–	6.74
101.3 kPa, x1 = 0.8002	23.04	–	14.28	–	9.46	–	6.18
101.3 kPa, x1 = 0.9001	17.51	–	11.45	–	7.8	–	5.19
101.3 kPa, x2 = 0.3547	30.01	–	–	–	10.6	–	6.882
101.33 kPa, x1 = 0.019	1.537	1.336	1.172	1.038	0.927	0.833	0.755
101.33 kPa, x1 = 0.0419	2.508	2.112	1.804	1.559	1.362	1.201	1.068
101.33 kPa, x1 = 0.0686	3.671	3.152	2.613	2.222	1.896	1.643	1.438
101.33 kPa, x1 = 0.1	5.847	4.671	3.798	3.14	–	2.241	1.934

CNC=O + O
viscosity [mPa·s]
Settings	298 K	298.15 K	303 K	303.15 K	308.15 K	313.15 K	318.15 K	323.15 K
101 kPa, x1 = 0.0328	1.05	–	0.9456	–	–	–	–	–
101 kPa, x1 = 0.1	–	1.384	–	1.219	1.083	0.9687	0.871	–
101 kPa, x1 = 0.1158	1.305	–	1.176	–	–	–	–	–
101 kPa, x1 = 0.1999	–	1.754	–	1.539	1.363	1.215	1.084	–
101 kPa, x1 = 0.2341	1.573	–	1.425	–	–	–	–	–
101 kPa, x1 = 0.3002	–	1.967	–	1.728	1.532	1.366	1.222	–
101 kPa, x1 = 0.4001	–	–	–	1.805	1.608	1.44	1.3	–
101 kPa, x1 = 0.4163	–	–	1.625	–	–	–	–	–
101 kPa, x1 = 0.4998	–	2.031	–	1.818	1.636	1.472	1.331	–
101 kPa, x1 = 0.6006	–	1.975	–	1.772	1.59	1.437	1.304	–
101 kPa, x1 = 0.6995	–	1.902	–	1.712	1.546	1.401	1.273	–
101 kPa, x1 = 0.7334	1.658	–	1.5	–	–	–	–	–
101 kPa, x1 = 0.8	–	1.836	–	1.658	1.502	1.364	1.243	–
101 kPa, x1 = 0.8997	–	1.781	–	1.609	1.459	1.327	1.21	–
101.33 kPa, x1 = 0.0969	–	–	–	1.216	1.086	0.974	0.8818	0.8012
101.33 kPa, x1 = 0.2015	–	–	–	1.529	1.36	1.219	1.098	0.9948
101.33 kPa, x1 = 0.2996	–	–	–	1.718	1.531	1.373	1.24	1.124
101.33 kPa, x1 = 0.4005	–	–	–	1.792	1.603	1.445	1.308	1.187
101.33 kPa, x1 = 0.4994	–	–	–	1.789	1.61	1.458	1.327	1.211
101.33 kPa, x1 = 0.5995	–	–	–	1.753	1.576	1.443	1.32	1.21
101.33 kPa, x1 = 0.6999	–	–	–	1.693	1.542	1.412	1.296	1.193
101.33 kPa, x1 = 0.7999	–	–	–	1.649	1.509	1.388	1.279	1.182
101.33 kPa, x1 = 0.9001	–	–	–	1.61	1.478	1.361	1.261	1.164

OC[C@@H](O)[C@@H](O)[C@H](O)[C@@H](O)CO + O
Settings	viscosity [mPa·s]
293.15 K, 101 kPa, x1 = 0.0142	1.458
303.15 K, 101 kPa, x1 = 0.002	0.8134
303.15 K, 101 kPa, x1 = 0.003592	0.8731
303.15 K, 101 kPa, x1 = 0.004	0.8647
303.15 K, 101 kPa, x1 = 0.006	0.916
303.15 K, 101 kPa, x1 = 0.007154	0.948
303.15 K, 101 kPa, x1 = 0.0078	0.9637
303.15 K, 101 kPa, x1 = 0.008	0.9675
303.15 K, 101 kPa, x1 = 0.0089	0.9962
303.15 K, 101 kPa, x1 = 0.01	1.019
303.15 K, 101 kPa, x1 = 0.012	1.071
303.15 K, 101 kPa, x1 = 0.0122	1.072
303.15 K, 101 kPa, x1 = 0.0135	1.104
303.15 K, 101 kPa, x1 = 0.016	1.175
303.15 K, 101 kPa, x1 = 0.0194	1.277
303.15 K, 101 kPa, x1 = 0.02	1.279
303.15 K, 101 kPa, x1 = 0.0228	1.345
303.15 K, 101 kPa, x1 = 0.024	1.383
303.15 K, 101 kPa, x1 = 0.026	1.436
303.15 K, 101 kPa, x1 = 0.028	1.489
305.15 K, 100 kPa, x1 = 4e-05	0.8093
305.15 K, 100 kPa, x1 = 7e-05	0.8135
308.15 K, 101 kPa, x1 = 0.004	0.7869
308.15 K, 101 kPa, x1 = 0.006	0.8221
308.15 K, 101 kPa, x1 = 0.008	0.8763
308.15 K, 101 kPa, x1 = 0.01	0.9231
308.15 K, 101 kPa, x1 = 0.012	0.9658
308.15 K, 101 kPa, x1 = 0.014	1.008
308.15 K, 101 kPa, x1 = 0.016	1.054
308.15 K, 101 kPa, x1 = 0.018	1.105
308.15 K, 101 kPa, x1 = 0.02	1.147
308.15 K, 101 kPa, x1 = 0.022	1.203
308.15 K, 101 kPa, x1 = 0.024	1.245
308.15 K, 101 kPa, x1 = 0.026	1.291
308.15 K, 101 kPa, x1 = 0.028	1.355
310.15 K, 100 kPa, x1 = 4e-05	0.7489
310.15 K, 100 kPa, x1 = 7e-05	0.7596
313.15 K, 101 kPa, x1 = 0.002	0.6825
313.15 K, 101 kPa, x1 = 0.004	0.7202
313.15 K, 101 kPa, x1 = 0.006	0.7581
313.15 K, 101 kPa, x1 = 0.007154	0.7675
313.15 K, 101 kPa, x1 = 0.0078	0.7956
313.15 K, 101 kPa, x1 = 0.008	0.7961
313.15 K, 101 kPa, x1 = 0.0089	0.815
313.15 K, 101 kPa, x1 = 0.01	0.8344
313.15 K, 101 kPa, x1 = 0.0107	0.834
313.15 K, 101 kPa, x1 = 0.012	0.8728
313.15 K, 101 kPa, x1 = 0.0122	0.8704
313.15 K, 101 kPa, x1 = 0.014	0.9114
313.15 K, 101 kPa, x1 = 0.016	0.9502
313.15 K, 101 kPa, x1 = 0.0169	0.9712
313.15 K, 101 kPa, x1 = 0.0177	0.9777
313.15 K, 101 kPa, x1 = 0.018	0.9891
313.15 K, 101 kPa, x1 = 0.022	1.068
313.15 K, 101 kPa, x1 = 0.0228	1.077
313.15 K, 101 kPa, x1 = 0.024	1.107
313.15 K, 101 kPa, x1 = 0.026	1.147
313.15 K, 101 kPa, x1 = 0.028	1.187
315.15 K, 100 kPa, x1 = 4e-05	0.7083
315.15 K, 100 kPa, x1 = 7e-05	0.7362
318.15 K, 101 kPa, x1 = 0.004	0.6625
318.15 K, 101 kPa, x1 = 0.006	0.6978
318.15 K, 101 kPa, x1 = 0.008	0.7286
318.15 K, 101 kPa, x1 = 0.01	0.7647
318.15 K, 101 kPa, x1 = 0.012	0.796
318.15 K, 101 kPa, x1 = 0.014	0.8293
318.15 K, 101 kPa, x1 = 0.016	0.8716
318.15 K, 101 kPa, x1 = 0.018	0.9013
318.15 K, 101 kPa, x1 = 0.02	0.9433
318.15 K, 101 kPa, x1 = 0.022	0.9822
318.15 K, 101 kPa, x1 = 0.024	1.015
318.15 K, 101 kPa, x1 = 0.026	1.06
318.15 K, 101 kPa, x1 = 0.028	1.089
323.15 K, 101 kPa, x1 = 0.002	0.5854
323.15 K, 101 kPa, x1 = 0.003592	0.5894
323.15 K, 101 kPa, x1 = 0.004	0.6131
323.15 K, 101 kPa, x1 = 0.006	0.6414
323.15 K, 101 kPa, x1 = 0.0078	0.6663
323.15 K, 101 kPa, x1 = 0.008	0.6702
323.15 K, 101 kPa, x1 = 0.0089	0.685
323.15 K, 101 kPa, x1 = 0.01	0.6996
323.15 K, 101 kPa, x1 = 0.0103	0.7078
323.15 K, 101 kPa, x1 = 0.0107	0.6878
323.15 K, 101 kPa, x1 = 0.0112	0.716
323.15 K, 101 kPa, x1 = 0.012	0.7295
323.15 K, 101 kPa, x1 = 0.0122	0.7288
323.15 K, 101 kPa, x1 = 0.014	0.76
323.15 K, 101 kPa, x1 = 0.0142	0.7324
323.15 K, 101 kPa, x1 = 0.015	0.7741
323.15 K, 101 kPa, x1 = 0.016	0.791
323.15 K, 101 kPa, x1 = 0.0169	0.8041
323.15 K, 101 kPa, x1 = 0.0177	0.7979
323.15 K, 101 kPa, x1 = 0.018	0.8226
323.15 K, 101 kPa, x1 = 0.0194	0.8507
323.15 K, 101 kPa, x1 = 0.02	0.8547
323.15 K, 101 kPa, x1 = 0.022	0.8874
323.15 K, 101 kPa, x1 = 0.0228	0.8982
323.15 K, 101 kPa, x1 = 0.024	0.9206
323.15 K, 101 kPa, x1 = 0.026	0.9544
323.15 K, 101 kPa, x1 = 0.028	0.9887
